# In US20240309018A1, “THIAZOLE-LACTAM-SPIROHETEROCYCLIC COMPOUNDS AND APPLICATIONS THEREOF” (D3 BIO (WUXI) CO., LTD, priority 2021, published 2024):
# Tests used:
# [1] = Hygroscopicity study (DVS); assay type: physicochemical; conditions: 25° C. and 80% RH
# Protocol: Dynamic vapor adsorption (DVS) curves were collected on DVS Intrinsic plus of Surface Measurement Systems (SMS) company. The relative humidity at 25° C. was corrected with the deliquescent points of LiCl, Mg(NO3)2 and KCl.
# […]
# [2] = Solid stability test of the crystal form; assay type: physicochemical
# Protocol: The sample was placed at the bottom of an HPLC vial to form a thin layer. The samples were placed in a chamber at a constant temperature and humidity of 60° C./75% RH conditions and in a 92.5% RH desiccator. The bottles were sealed with a sealing film. Some small holes were punched in the sealing film to ensure that the samples were fully in contact with the ambient air. The caps of the sample bottles placed at 60° C. under light and light-shielding conditions (samples under light-shielding conditions were wrapped in tin foil) were tighten.
smiles,measurement,setting,value
Cc1cccc(CN2C(=O)c3nc(-c4nc(Nc5ccnn5C)ncc4C)sc3C23COC3)n1 [crystal form A of WX001],hygroscopicity classification,[1],almost no hygroscopicity
same,"ΔW, weight increase by moisture absorption",[1]; DVS,0.1134%
same,Crystal form,[2]; 0 day,Crystal form A
same,Crystal form,"[2]; 60° C., 5 days",Crystal form A
same,Crystal form,"[2]; 60° C., 10 days",Crystal form A
same,Crystal form,"[2]; 60° C./75% RH, 1 month",Crystal form A
same,Crystal form,"[2]; 60° C./75% RH, 2 months",Crystal form A
same,Crystal form,"[2]; 60° C./75% RH, 3 months",Crystal form A
same,Crystal form,"[2]; 92.5% RH, 5 days",Crystal form A
same,Crystal form,"[2]; 92.5% RH, 10 days",Crystal form A
same,Crystal form,"[2]; Control group of light-shielding, taking points simultaneously with visible light + UV group",Crystal form A
same,Crystal form,"[2]; Control group of light-shielding, taking points simultaneously with visible light group",Crystal form A
same,Crystal form,"[2]; Visible light (ICH conditions), reaching illumination of 1.2E+06 Lux · hrs",Crystal form A
same,Crystal form,"[2]; Visible light + UV (ICH conditions), reaching illumination of 200 W · hrs/m^2",Crystal form A
same,"solid stability, conclusion",[2]; all conditions of Table 15,good stability
